According to US8008478B2, “Process for the preparation of cefixime” (Lupin Limited, priority 2004, dated 2011):

Assay: Solubility check of a 3.3% solution of cefixime (I) in methanol
Assay type: physicochemical
Conditions: for Solubility: 3.3% solution of cefixime (I) in methanol
Procedure: The most preferred embodiment of the present invention is the acidification of the filtrate obtained in step (ii) to pH 2.0 to 3.0, preferably to 2.2 to 2.4 with dilute […] filtration at 50-80°, preferably at 60-70° C., most preferably at 64-68° C.

- Solubility (acidification and isolation of cefixime methyl ester (IV) at 25-30° C.): Hazy
- Solubility (acidification and isolation of cefixime methyl ester (IV) at 45-47° C.): Hazy
- Solubility (acidification and isolation of cefixime methyl ester (IV) at 65-67° C.): Clear
- Solubility profile (in words) (acidification and isolation of cefixime ester (IV) at 50-80° C., then alkaline hydrolysis): better solubility profile
- Solubility (in words) (acidification and isolation of cefixime ester (IV) at temperature below 50° C., then alkaline hydrolysis): poor solubility
Structure (SMILES): C=CC1=C(C(=O)O)N2C(=O)C(NC(=O)/C(=N\OCC(=O)O)c3csc(N)n3)C2SC1 (stereo not drawn) [cefixime (I), [6R-[6α,7β(Z)]]-7-[[(2-amino-4-thiazolyl)[(carboxymethoxy)imino]acetyl]amino]-3-vinyl-3-cephem-4-carboxylic acid]
